Experimental data as given in ChEMBL document CHEMBL1201862, “PubChem BioAssay data set” (2004).
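96-well plates; 48 h exposure; 5 concentrations. Endpoints by linear interpolation between flanking doses. Not reached: highest tested concentration assigned. GI50 = concentration required for 50% inhibition of growth.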 Activity calls are given as the source filed them. Cut-off read from the data, not from the text of the source: active = GI50 up to about 1.1 µM and inactive = higher.

How the values were obtained:
Experiment in all cases: NCI-60 cell line screen, 48 h
A498 = test system: A498
MOLT-4 = test system: MOLT-4
ACHN = test system: ACHN
HL-60 = test system: HL-60
KM12 = test system: KM12
MDA-MB-231 = test system: MDA-MB-231
Malme-3M = test system: Malme-3M
UACC-62 = test system: UACC-62
HCT-15 = test system: HCT-15
HT-29 = test system: HT-29
SK-MEL-2 = test system: SK-MEL-2
NCI-H522 = test system: NCI-H522
PC-3 = test system: PC-3
OVCAR-5 = test system: OVCAR-5
MCF7 = test system: MCF7
SK-MEL-28 = test system: SK-MEL-28
NCI-H23 = test system: NCI-H23
LOX IMVI = test system: LOX IMVI
NCI-H460 = test system: NCI-H460
786-0 = test system: 786-0
SNB-19 = test system: SNB-19
DU-145 = test system: DU-145
SK-MEL-5 = test system: SK-MEL-5
UO-31 = test system: UO-31
CAKI-1 = test system: CAKI-1
OVCAR-3 = test system: OVCAR-3
SR = test system: SR
COLO 205 = test system: COLO 205
TK-10 = test system: TK-10
OVCAR-8 = test system: OVCAR-8
M14 = test system: M14
SF-295 = test system: SF-295
Hs-578T = test system: Hs-578T
UACC-257 = test system: UACC-257
A549 = test system: A549
IGROV-1 = test system: IGROV-1
T47D = test system: T47D
SW-620 = test system: SW-620
EKVX = test system: EKVX
SF-268 = test system: SF-268
NCI/ADR-RES = test system: NCI/ADR-RES
MDA-MB-435 = test system: MDA-MB-435
SNB-75 = test system: SNB-75
CCRF-CEM = test system: CCRF-CEM
OVCAR-4 = test system: OVCAR-4
HCC 2998 = test system: HCC 2998
NCI-H226 = test system: NCI-H226
K562 = test system: K562
U-251 = test system: U-251
BT-549 = test system: BT-549
HOP-92 = test system: HOP-92
RXF 393 = test system: RXF 393
HOP-62 = test system: HOP-62
SF-539 = test system: SF-539
RPMI-8226 = test system: RPMI-8226
HCT-116 = test system: HCT-116
SK-OV-3 = test system: SK-OV-3
SN12C = test system: SN12C

Measured: GI50

Oc1c(-c2ccccc2)sc2ccccc12
active: CAKI-1 0.836 µM
31.9 µM: HCT-15
inactive: A498 31.4 µM | MOLT-4 24.7 µM | ACHN 24.7 µM | HL-60 22.6 µM | KM12 25.8 µM | MDA-MB-231 7.55 µM | Malme-3M 22.1 µM | UACC-62 49.3 µM | HT-29 31.3 µM | SK-MEL-2 10.8 µM | NCI-H522 27.9 µM | PC-3 18.7 µM | OVCAR-5 27 µM | MCF7 33.3 µM | SK-MEL-28 68.9 µM | NCI-H23 20.4 µM | LOX IMVI 15.5 µM | NCI-H460 19.1 µM | 786-0 22.4 µM | SNB-19 34.3 µM | DU-145 18.8 µM | SK-MEL-5 16.7 µM | UO-31 24.9 µM | OVCAR-3 10.2 µM | SR 7.5 µM | COLO 205 13 µM | TK-10 72.6 µM | OVCAR-8 31.6 µM | M14 20.2 µM | SF-295 19.5 µM | Hs-578T 43.9 µM | UACC-257 25.2 µM | A549 31.9 µM | IGROV-1 27.5 µM | T47D 11 µM | SW-620 48.3 µM | EKVX 24.9 µM | SF-268 60.7 µM | NCI/ADR-RES 34 µM | MDA-MB-435 31.6 µM | SNB-75 12.4 µM | CCRF-CEM 29.8 µM | OVCAR-4 37.9 µM | HCC 2998 17.1 µM | NCI-H226 16.4 µM | K562 13.7 µM | U-251 29.4 µM | BT-549 28.1 µM | HOP-92 21.9 µM | RXF 393 14.7 µM | HOP-62 16.7 µM | SF-539 44.5 µM | RPMI-8226 8.63 µM | HCT-116 18.7 µM

CN1CC[C@]23c4c5ccc(O)c4OC2c2[nH]ncc2C[C@H]3[C@H]1C5 (stereo partly specified)
inactive: MOLT-4 > 100 µM | ACHN > 100 µM | HL-60 > 100 µM | KM12 > 100 µM | MDA-MB-231 > 100 µM | Malme-3M > 100 µM | UACC-62 > 100 µM | HT-29 > 100 µM | SK-OV-3 > 100 µM | SK-MEL-2 > 100 µM | SN12C > 100 µM | NCI-H522 > 100 µM | PC-3 > 100 µM | OVCAR-5 > 100 µM | MCF7 > 100 µM | SK-MEL-28 > 100 µM | NCI-H23 > 100 µM | LOX IMVI > 100 µM | NCI-H460 > 100 µM | 786-0 > 100 µM | SNB-19 > 100 µM | DU-145 > 100 µM | SK-MEL-5 > 100 µM | UO-31 > 100 µM | CAKI-1 > 100 µM | OVCAR-3 > 100 µM | SR > 100 µM | COLO 205 > 100 µM | TK-10 > 100 µM | OVCAR-8 > 100 µM | M14 > 100 µM | SF-295 > 100 µM | Hs-578T > 100 µM | UACC-257 > 100 µM | A549 > 100 µM | IGROV-1 > 100 µM | T47D > 100 µM | EKVX > 100 µM | SF-268 > 100 µM | NCI/ADR-RES > 100 µM | MDA-MB-435 > 100 µM | SNB-75 94.6 µM | CCRF-CEM > 100 µM | OVCAR-4 > 100 µM | HCC 2998 > 100 µM | NCI-H226 > 100 µM | K562 > 100 µM | U-251 > 100 µM | BT-549 > 100 µM | HOP-92 > 100 µM | RXF 393 > 100 µM | HOP-62 > 100 µM | RPMI-8226 > 100 µM | HCT-116 > 100 µM
> 100 µM: HCT-15
